Data published in patent US9737602B2, “Carotenoid particles and uses thereof” (IP SCIENCE LIMITED, priority 2011, dated 2017).

Assays:
[1] = Clinical trial in CHD patients: total serum cholesterol; type: in vivo, human
Description: (§1) 20 Coronary Heart Disease (CHD) patients who were positive for anti-Chlamydia IgG and hypercholesterolaemia were identified. These patients were randomised in 4 groups of 5 patients, and each of them received daily either in: • 1st group—7 mg of lycopene supplement (in 70 mg of tomato oleoresin), or • 2nd group—[…] of WP, or • 3rd group—mechanical mixture of 7 mg of lycopene (in 70 mg of tomato oleoresin), and 70 mg of WP, or • 4th group—WP-Lycosome comprising of 7 mg of lycopene (in 70 mg of tomato oleoresin) and 70 mg of WP.
(§2) Serum anti-Chlamydia IgG and total serum cholesterol were measured after 4 weeks.

[2] = clinical; type: in vivo, human
Description: as §1

[3] = system: Chlamydia pneumoniae; assay: Clinical trial in CHD patients: serum anti-Chlamydia IgG (IgG-ELISA); type: in vivo, human; conditions: for Chlamydia pneumoniae load in IgG-ELISA, ELISA reading: below 0.300-0.400 is considered negative
Description: as §1, §2

[4] = Pharmacokinetic study on volunteers: unmodified trans-resveratrol in blood; type: in vivo; conditions: human, serum, po, 100 mg, 100 mg trans-Resveratol oral, individual volunteers ID 1, 2, read-out: AUC for 24 hours
Description: The group of 5 volunteers comprised of 2 female and 3 male clinically healthy Caucasian persons, age between 23 and 35 years. They were asked, before commencing this experiment, to go for 3-4 days “wash-out”, when consumption of any grape, wine, peanut, chocolate and other products which might contain them.
Blood samples were taken from their median cubital or cephalic veins at the baseline point. […]
After taking blood its serum was separated, aliquoted and stored at −80° C. for further testing.

[5] = difference after 4 weeks of administration

Row | AUC [4] [ng·h/mL] | Structure (SMILES) | Total serum Cholesterol ([1]; 0 w) [mmol/L] | Total serum Cholesterol ([1]; 4 w) [mmol/L] | reduction of serum cholesterol ([1]; after 4 weeks) [mmol/L] | Total serum Cholesterol, Δ [1, 5] [mmol/L] | Total serum Lycopene, Δ [2, 5] | concentration at 0 w ([2]; human, in vivo) [ng/mL] | concentration at 4 w ([2]; human, in vivo) [ng/mL] | number of sero-positive patients ([3]; 0 w) | Chlamydia pneumoniae load in IgG-ELISA, ELISA reading ([3]; 0 w, CHD patients) | number of sero-positive patients ([3]; 1 w) | number of sero-positive patients ([3]; 2 w) | number of sero-positive patients ([3]; 3 w) | time by which all patients were sero-negative / anti-Chlamydia IgG cleared from serum ([3]; 4-week trial) | number of sero-positive patients ([3]; 4 w) | Chlamydia pneumoniae load in IgG-ELISA, ELISA reading ([3]; 4 w of daily administration) | effect on level of Chlamydia infection (specific IgG), in words ([3]; CHD patients, daily for 4 weeks)
1 | – | CC(C)=CCC/C(C)=C/C=C/C(C)=C/C=C/C(C)=C/C=C/C=C(C)/C=C/C=C(C)/C=C/C=C(\C)CCC=C(C)C [GA Lycopene, lycopene] | 5.4 ± 0.23 | 4.7 ± 0.21 | 0.7 | -0.7 | +116 ng/ml | 179 ± 21 | 295 ± 23 | 10 | 0.997 ± 0.098 | (10) | (4) | (2) | in the last week of the trial | 0 | 0.288 ± 0.043 | some ability to reduce Chlamydia infection
2 | 432 | Oc1ccc(/C=C/c2cc(O)cc(O)c2)cc1 [Resveratrol, 3,5,4′-trihydroxy-trans-stilbene] | – | – | – | – | – | – | – | – | – | – | – | – | – | – | – | –
